Data: the supplement of paper PMC10627819

Experiments:
B. subtilis 168 [1] = test: fitness (endpoint OD595 vs no drug) (fraction); higher = more growth
Procedure, shortened: (§1)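 Each well of a 384-well plate received 30 µl of culture at OD595 0.01, or 55 µl for S. pneumoniae. TSB, LB Lennox or CY served as media at 37 °C. OD595 was taken every 30 min for 14 h and corrected by subtracting the first reading. Fitness is the optical density at stationary-phase entry divided by the robust mean of no-drug controls, capped at 1.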

S. aureus Newman [2] = test: as above
Procedure, shortened: as §1

S. pneumoniae D39V [3] = test: as above
Procedure, shortened: as §1

B. subtilis 168 [4] = test: Bliss interaction score (quartile over a dose matrix) (fitness difference); higher = more antagonism (negative = synergy)
Procedure, shortened: (§2)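 The Bliss score is observed fitness minus expected fitness, where the expected value is the product of single-drug fitness values inferred from combination data. Fitness is OD595 at entry into stationary phase normalised to the plate's robust no-drug mean and capped at 1. Scores are reported as quartiles spanning technical, biological and donor/recipient replicates.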

S. aureus DSM 20231 = test: as above
Procedure, shortened: as §2

S. aureus Newman [5] = test: as above
Procedure, shortened: as §2

S. pneumoniae D39V [6] = test: as above
Procedure, shortened: as §2
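Throughout, for Bliss interaction score (quartile over a dose matrix): first quartile when negative (synergy) and third quartile when positive (antagonism).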

CC1=C(C(=O)O)N2C(=O)[C@@H](NC(=O)[C@H](N)c3ccccc3)[C@H]2SC1 [Cephalexin] + Cc1onc(-c2ccccc2)c1C(=O)N[C@@H]1C(=O)N2[C@@H]1SC(C)(C)[C@@H]2C(=O)O [Oxacillin]
Details | fitness
B. subtilis 168 [1], first compound 0.125 µg/mL, partner 0.002 µg/mL | 0.975
B. subtilis 168 [1], first compound 0.125 µg/mL, partner 0.004 µg/mL | 0.879
B. subtilis 168 [1], first compound 0.125 µg/mL, partner 0.008 µg/mL | 0.896
B. subtilis 168 [1], first compound 0.25 µg/mL, partner 0.002 µg/mL | 0.911
B. subtilis 168 [1], first compound 0.25 µg/mL, partner 0.004 µg/mL | 0.948
B. subtilis 168 [1], first compound 0.25 µg/mL, partner 0.008 µg/mL | 0.879
B. subtilis 168 [1], first compound 0.5 µg/mL, partner 0.002 µg/mL | 0.925
B. subtilis 168 [1], first compound 0.5 µg/mL, partner 0.004 µg/mL | 0.961
B. subtilis 168 [1], first compound 0.5 µg/mL, partner 0.008 µg/mL | 0.97
S. aureus Newman [2], first compound 0.25 µg/mL, partner 0.0156 µg/mL | 0.803
S. aureus Newman [2], first compound 0.25 µg/mL, partner 0.0312 µg/mL | 0.761
S. aureus Newman [2], first compound 0.25 µg/mL, partner 0.0625 µg/mL | 0.727
S. aureus Newman [2], first compound 0.5 µg/mL, partner 0.0156 µg/mL | 0.768
S. aureus Newman [2], first compound 0.5 µg/mL, partner 0.0312 µg/mL | 0.749
S. aureus Newman [2], first compound 0.5 µg/mL, partner 0.0625 µg/mL | 0.675
S. aureus Newman [2], first compound 1 µg/mL, partner 0.0156 µg/mL | 0.721
S. aureus Newman [2], first compound 1 µg/mL, partner 0.0312 µg/mL | 0.72
S. aureus Newman [2], first compound 1 µg/mL, partner 0.0625 µg/mL | 0.651
S. pneumoniae D39V [3], first compound 1 µg/mL, partner 0.02 µg/mL | 0.171
S. pneumoniae D39V [3], first compound 1 µg/mL, partner 0.04 µg/mL | 0.0188
S. pneumoniae D39V [3], first compound 2 µg/mL, partner 0.01 µg/mL | 0.1
S. pneumoniae D39V [3], first compound 2 µg/mL, partner 0.02 µg/mL | 0.044
S. pneumoniae D39V [3], first compound 2 µg/mL, partner 0.04 µg/mL | 0.0313
S. pneumoniae D39V [3], first compound 4 µg/mL, partner 0.01 µg/mL | 0.0222
S. pneumoniae D39V [3], first compound 4 µg/mL, partner 0.02 µg/mL | 0.0259
S. pneumoniae D39V [3], first compound 4 µg/mL, partner 0.04 µg/mL | 0.0275

fitness, one replicate
Details | first compound 0.125 µg/mL | first compound 0.25 µg/mL | first compound 0.5 µg/mL | first compound 1 µg/mL
B. subtilis 168 [1], partner 0.075 µg/mL | – | 0.65 | 0.551 | 0.563
B. subtilis 168 [1], partner 0.15 µg/mL | – | 0.0401 | 0.0556 | 0.0643
B. subtilis 168 [1], partner 0.3 µg/mL | – | 0.0429 | 0.0316 | 0.051
S. pneumoniae D39V [3], partner 0.01 µg/mL | ≥ 1 | 0.989 | 0.99 | –
S. pneumoniae D39V [3], partner 0.02 µg/mL | 0.92 | 0.897 | 0.886 | –
S. pneumoniae D39V [3], partner 0.04 µg/mL | 0.175 | 0.196 | 0.124 | –

Details | Bliss interaction score
B. subtilis 168 [4] | 0.0457
S. aureus DSM 20231 | 0.0592
S. aureus Newman [5] | 0.0632
S. pneumoniae D39V [6] | -0.216

CNC(C)C1CCC(N)C(OC2C(N)CC(N)C(OC3OCC(C)(O)C(NC)C3O)C2O)O1 (stereo unspecified) [Gentamicin] + CC1=C\[C@@H](O)CC(=O)Cc2nc(co2)C(=O)N2CCC=C2C(=O)O[C@H](C(C)C)[C@H](C)/C=C/C(=O)NC\C=C\1 [Virginiamycin M1]
fitness, main component drawn
Details | partner 0.0625 µg/mL | partner 0.125 µg/mL | partner 0.25 µg/mL | partner 0.5 µg/mL | partner 1 µg/mL | partner 2 µg/mL
B. subtilis 168 [1], first compound 0.0625 µg/mL | 0.895 | 0.897 | 0.905 | – | – | –
B. subtilis 168 [1], first compound 0.25 µg/mL | 0.0328 | 0.0454 | 0.0523 | – | – | –
S. aureus Newman [2], first compound 0.5 µg/mL | 0.959 | 0.996 | 0.995 | – | – | –
S. aureus Newman [2], first compound 1 µg/mL | ≥ 1 | ≥ 1 | ≥ 1 | – | – | –
S. aureus Newman [2], first compound 2 µg/mL | ≥ 1 | ≥ 1 | ≥ 1 | – | – | –
S. pneumoniae D39V [3], first compound 2 µg/mL | – | – | – | 0.973 | ≥ 1 | 0.952
S. pneumoniae D39V [3], first compound 4 µg/mL | – | – | – | 0.99 | ≥ 1 | 0.973
S. pneumoniae D39V [3], first compound 8 µg/mL | – | – | – | 0.991 | ≥ 1 | 0.943

fitness, one replicate, main component drawn
Details | first compound 1 µg/mL | first compound 2 µg/mL | first compound 4 µg/mL | first compound 8 µg/mL
S. aureus Newman [2], partner 0.5 µg/mL | 0.849 | 0.873 | 0.22 | –
S. aureus Newman [2], partner 1 µg/mL | 0.961 | ≥ 1 | 0.0961 | –
S. aureus Newman [2], partner 2 µg/mL | 0.849 | 0.792 | 0.0867 | –
S. pneumoniae D39V [3], partner 0.15 µg/mL | – | ≥ 1 | ≥ 1 | ≥ 1
S. pneumoniae D39V [3], partner 0.3 µg/mL | – | ≥ 1 | ≥ 1 | 0.944

main component drawn
Details | Bliss interaction score
B. subtilis 168 [4] | -0.0977
S. aureus DSM 20231 | 0.094
S. aureus Newman [5] | -0.0365
S. pneumoniae D39V [6] | 0.0786
